Data published in patent US12012411B2, “Viral replication inhibitors” (Katholieke Universiteit Leuven, priority 2011, dated 2024).

Tests used:
in vitro = conditions: African green monkey
[1] = test system: uninfected quiescent Vero-B cells; test: Cytotoxic assay in uninfected quiescent Vero-B cells (MTS/PMS); conditions: 4 days (Table 3)
[2] = test system: DENV-3 strain H87 prototype; test: Antiviral activity against DENV-3 in Vero-B cells (viral RNA load by RT-qPCR); type: cell-based, Dengue virus; conditions: Dengue virus, DENV3, Vero B
[3] = test system: DENV-4 strain Dak HD 34 460; test: Antiviral activity against DENV-4 in Vero-B cells (viral RNA load by RT-qPCR); type: cell-based, Dengue virus; conditions: Dengue virus, DENV4, Vero B
[4] = test system: DENV-1 Djibouti strain D1/H/IMTSSA/98/606; test: Antiviral activity against DENV-1 in Vero-B cells (viral RNA load by RT-qPCR); type: cell-based, Dengue virus; conditions: Dengue virus, DENV1, Vero B
YFV-17D = test: microbe, parasite or virus in culture; type: cell-based; conditions: Yellow fever virus, Vero B
DENV-2 NGC [5] = test: Antiviral activity against DENV-2 NGC in Vero-B cells (viral RNA load by RT-qPCR); type: cell-based, Dengue virus; conditions: Dengue virus, DENV2, Vero B, DENV-2 in Vero-B cells; inhibition of viral RNA replication by 50% (Table 3)
[6] = Cytotoxicity in A549 cells (MTS/PMS); type: cell-based; conditions: human; A549 cells (Table 6)
Experimental: A similar protocol was used to assess cytotoxicity in A549 cells with the difference that cells were seeded at 2×10^4 cells/well.

DENV-2 NGC [7] = test: Antiviral activity against DENV-2 NGC in A549 cells (viral RNA load by RT-qPCR); type: cell-based; conditions: Dengue virus, DENV2; DENV-2 in A549 cells (Table 6)
DENV-2 strain D2Y98P = test: Dengue mortality model in AG129 mice; type: in vivo; conditions: 60 mg/kg/day, sc, twice daily, 17 consecutive days; DENV-2 D2Y98P infected AG129 mice; p: 0.0017; FIG. 1

SMILES	CC50 (in vitro) [µM]	CC50 [1] [µM]	EC50 [2] [nM]	EC50 [3] [µM]	EC50 [4] [nM]	EC50 (YFV-17D) [nM]	EC50 (DENV-2 NGC [5]) [nM]	CC50 at 4 days [6] [µM]	EC50 (DENV-2 NGC [7]) [nM]	CC50 at 4 days (in vitro; uninfected quiescent Vero-B cells) [µM]	delay in virus-induced morbidity (day of euthanasia) (DENV-2 strain D2Y98P)
COc1cc(NC(C(=O)c2c[nH]c3ccccc23)c2ccccc2)cc(OC)c1 (stereo not shown) [CPD-002]	25	16	< 500	27.2	540	2810	10				
COc1cccc(NC(C(=O)c2c[nH]c3ccccc23)c2ccccc2)c1 (stereo not shown) [CPD-010]	12	18	3540	5.43	1290	< 600	70	16	66		
COc1cccc(NC(C(=O)c2c[nH]c3ccccc23)c2cccnc2)c1 (stereo not shown) [CPD-019]	56	71	2180	8.38	670	6180	140				
COc1cncc(NC(C(=O)c2c[nH]c3cc(F)ccc23)c2ccc(OC)nc2)c1 (stereo not shown) [CPD-242]			570	7.87	400		40	47	10	59	highly significant delay
